Data taken from patent publication US9963486B2, “Peptidomimetics for treating HER2-overexpressed cancer” (Board of Supervisors for the University of Louisiana System, priority 2014, dated 2018).
Read-outs that look alike come from different tables or passages of the source. Numbered stars: 1 amine (or outer) side, 2 acyl side, 3 side chain; on linkers, the order of the positions; unused ones are H or OH. Square brackets hold non-standard residues; d marks the D form. Peptide text beside a SMILES is read from it. βAla(3R-(1-naphthyl)) = O=C(C[C@@H](N[*:1])c1cccc2ccccc12)[*:2]; X1 = O=C(CC(N[*:1])c1cccc2ccccc12)[*:2]

Assays:
[1] = tested on: SKBR-3 HER2-overexpressing breast cancer cells
Protocol: (§1) Compounds were tested for antiproliferative activity against several cancer cell lines and a control cell line. […] CP was the control peptidomimetic. […] SKOV-3 and Calu-3 are HER2-overexpressing ovarian and lung cancer cells, respectively. (+) and (−) indicate HER2-positive and HER2-negative, respectively.

[2] = tested on: SKOV-3 HER2-overexpressing ovarian cancer cells
Protocol: as §1

[3] = Stability in mouse serum (electrospray-mass spectrometry)
Protocol: (§2) Compounds were incubated in mouse serum for various times, and then extracted using a solid-phase extraction technique. The compounds were analyzed with electrospray-mass spectrometry. A known amount of a freshly-prepared internal standard was used for calibration.

[4] = tested on: MCF-7 breast cancer cells that do not overexpress HER2
Protocol: as §1

[5] = tested on: Calu-3 HER2-overexpressing lung cancer cells
Protocol: as §1

[6] = mouse, serum
Protocol: as §2

[7] = tested on: MCF-10A normal breast epithelial cell line
[8] = tested on: BT-474 HER2-overexpressing breast cancer cells
Protocol: as §1

[9] = tested on: BT-474 HER2-overexpressing breast cancer cells; assay: cells; conditions: Homo sapiens, BT-474, read-out: IC50 BT-474 (+)
Protocol: as §1

[10] = tested on: HER2-expressing breast tumors (BT-474 cells); assay: BT-474 xenograft model of breast cancer, tumor volume; type: in vivo, nude mice; conditions: 4 mg/kg injected just below the tumor, twice a week for 19 days; Days 9-19
Protocol: We evaluated the ability of Compound 18 to suppress HER2-expressing breast tumors in a xenograft model of breast cancer. Breast cancer tumors were induced in nude mice by injecting 2 million BT-474 cells; these estrogen-dependent cancer cells were stimulated by an implanted estrogen pellet. Compound 9, Compound 18, vehicle, or lapatinib (positive control) were injected just below the tumor at a dose of 4 mg/kg, twice a week for 19 days, for a total of 6 injections. Mice weight and health were monitored daily. Tumor size was measured with Vernier calipers. Tumor volume was estimated using the formula Volume=length×0.5 (width)^2. At the end of the experimental period, mice were euthanized and tumor sections were removed and frozen for further analysis. FIG. 9 depicts tumor volume as a function of time for the various treatments.

[11] = read-out: IC50 SKBR-3 (+), antiproliferative activity, HER2-positive breast cancer cells, Table 3
[12] = read-out: IC50 SKOV-3 (+), antiproliferative activity, HER2-positive ovarian cancer cells, Table 3
[13] = read-out: IC50 MCF-7 (−), antiproliferative activity, HER2-negative breast cancer cells, Table 3
[14] = read-out: IC50 Calu-3 (+), antiproliferative activity, HER2-positive lung cancer cells, Table 3
[15] = read-out: IC50 BT-474 (+), antiproliferative activity, HER2-positive breast cancer cells, Table 3

N=C(N)NCCC[C@H](N)C(=O)NC(CC(=O)N[C@@H](Cc1ccccc1)C(=O)O)c1cccc2ccccc12 (some centres unmarked) [Compound 5, H2N-R(Anapa)F-OH]
IC50 [1, 11]: 396 ± 22 nM
IC50 [2, 12]: 658 ± 40 nM
half-life ([3]; mouse, serum): 120 to 180 min

N=C(N)NCCC[C@@H]1NC(=O)[C@H]2CCCN2C(=O)[C@@H]2CCCN2C(=O)[C@H](CCCNC(=N)N)NC(=O)CC(c2cccc3ccccc23)NC(=O)[C@H](Cc2ccccc2)NC(=O)[C@H](CC(=O)O)NC(=O)[C@H](CC(=O)O)NC(=O)[C@H](Cc2ccccc2)NC(=O)CC(c2cccc3ccccc23)NC1=O (some centres unmarked) [Compound 18, Cyclo(1,10)PpR(Anapa)FDDF(Anapa)R] (cyclo(P[dP]R[X1]FDDF[X1]R))
IC50 [4, 13]: > 50 µM
IC50 [1, 11]: 194 ± 46 nM
IC50 [5, 14]: 18 ± 13 nM
IC50 [2, 12]: 853 ± 102 nM
half-life [6]: > 2880 min
toxicity to normal cells [7]: not toxic to normal cells
IC50 ([7]; read-out: IC50 MCF-10A, antiproliferative activity, normal breast epithelial cell line): 40 µM

CC(=O)N[C@H](Cc1ccccc1)C(=O)NC(CC(=O)N[C@H](CCCNC(=N)N)C(N)=O)c1cccc2ccccc12 (some centres unmarked) [Compound 21, Ac-f(Anapa)r-NH2]
IC50 [4]: > 50 µM
IC50 [1]: 373 ± 150 nM
IC50 [5]: 1090 ± 310 nM
IC50 [2]: 373 ± 150 nM
IC50 [8]: 595 ± 270 nM

N=C(N)NCCC[C@@H]1NC(=O)[C@H]2CCCN2C(=O)[C@@H]2CCCN2C(=O)[C@H](CCCCN)NC(=O)C[C@H](c2cccc3ccccc23)NC(=O)[C@H](Cc2ccccc2)NC(=O)[C@H](CC(=O)O)NC(=O)[C@H](CC(=O)O)NC(=O)[C@H](Cc2ccccc2)NC(=O)C[C@H](c2cccc3ccccc23)NC1=O [Compound 33, Cyclo(PpR-(R)Anapa-FDDF-(R)Anapa-K]
IC50 [4]: > 100 µM
IC50 [1]: 500 ± 280 nM
IC50 [5]: 900 ± 200 nM
IC50 [8]: 400 ± 140 nM

N=C(N)NCCC[C@H]1NC(=O)[C@H]2CCCN2C(=O)[C@@H]2CCCN2C(=O)[C@@H](CCCNC(=N)N)NC(=O)C[C@H](c2cccc3ccccc23)NC(=O)[C@@H](Cc2ccccc2)NC(=O)[C@@H](CC(=O)O)NC(=O)[C@@H](CC(=O)O)NC(=O)[C@@H](Cc2ccccc2)NC(=O)C[C@H](c2cccc3ccccc23)NC1=O [Compound 38, Cyclo(Ppr-(R)Anapa-fddf-(R)Anapa-r] (cyclo(P[dP][dR][βAla(3R-(1-naphthyl))][dF][dD][dD][dF][βAla(3R-(1-naphthyl))][dR]))
IC50 ([4]; read-out: Antiproliferative activity IC50 MCF-7, Table 5): 13.5 ± 0.7 µM
IC50 ([1]; read-out: Antiproliferative activity IC50 SKBR-3, Table 5): 800 ± 70 nM
IC50 ([5]; read-out: Antiproliferative activity IC50 Calu-3, Table 5): 550 ± 200 nM
IC50 ([8]; read-out: Antiproliferative activity IC50 BT-474, Table 5): 860 ± 50 nM

N=C(N)NCCC[C@H]1NC(=O)[C@H]2CCCN2C(=O)[C@@H]2CCCN2C(=O)[C@@H](CC(=O)O)NC(=O)[C@@H](Cc2ccccc2)NC(=O)C[C@H](c2cccc3ccccc23)NC(=O)[C@@H](CCCNC(=N)N)NC(=O)[C@@H](CC(=O)O)NC(=O)[C@@H](Cc2ccccc2)NC(=O)C[C@H](c2cccc3ccccc23)NC1=O [Compound 41, Cyclo(Ppr-(R)Anapa-fdr-(R)Anapa-fd] (cyclo(P[dP][dR][βAla(3R-(1-naphthyl))][dF][dD][dR][βAla(3R-(1-naphthyl))][dF][dD]))
IC50 [8]: 850 ± 70 nM

CS(=O)(=O)CCNCc1ccc(-c2ccc3ncnc(Nc4ccc(OCc5cccc(F)c5)c(Cl)c4)c3c2)o1 [Lapatinib, reference compound]
IC50 [9]: 25 ± 4 nM
tumor volume compared to control [10]: decreased tumor volume

H2N-K(3-amino-biphenyl propionic acid)F-OH [CP, reference compound]
IC50 [4, 13]: > 100 µM
IC50 [1, 11]: > 100000 nM
IC50 [5, 14]: > 100000 nM
IC50 [2, 12]: > 100000 nM
IC50 [8, 15]: > 100000 nM

H2N-R(Anapa)FD-OH [Compound 9]
IC50 [4, 13]: 45 µM
IC50 [1, 11]: 445 ± 32 nM
IC50 [5, 14]: 847 ± 71 nM
IC50 [2, 12]: 417 ± 55 nM
tumor volume compared to control [10]: decreased tumor volume
IC50 [8, 15]: 785 ± 11 nM
time within which degraded in mouse serum ([3]; mouse serum, FIG. 10): ≤ 24 h
